In paper PMC6201305 (Journal of medicinal chemistry, 2010):
Where “and” joins values, the source holds several entries; their conditions need not be identical. Equal values may be shown once.

Assays:
[1] = target: T1, wild type GPR17 (Homo sapiens, UniProt Q13304); assay: FAC-MS screening on GPR17-IAM-I column; format: binding; details: for t/tc × 100, percentage of breakthrough time with respect to cangrelor / t (min), breakthrough time of the ligand with the immobilized GPR17 / binding class from FAC-MS breakthrough: column GPR17-IAM-I; for t (min), breakthrough time of the ligand with the immobilized GPR17: each 1 µM, single ranking experiment; for binding class from FAC-MS breakthrough: relative to cangrelor, MRS 2179 and UDP
[2] = target: T1, wild type GPR17; assay: FAC-MS screening on GPR17-IAM-II column; format: binding; details: Library A; for breakthrough time GPR17-IAM-II (Table 5): 1 µM each; for breakthrough time GPR17-IAM-II (Table 5) / t (min), breakthrough time: column GPR17-IAM-II (19.5 million cells); for t/tC × 100: column GPR17-IAM-II; for t (min), breakthrough time: single ranking experiment
[3] = target: mutated GPR17 receptor (Arg255Ile) (Homo sapiens, UniProt Q13304, R283I); assay: FAC-MS screening on mutated GPR17-IAM column; format: binding; details: Library A, mutated GPR17-IAM column (19.5 million cells); for breakthrough time Mutated GPR17-IAM (Table 5): 1 µM each
[4] = target: R255I mutated GPR17 receptor (Homo sapiens, UniProt Q13304, R283I); assay: [35S]GTPγS binding functional assay, 1321N1 cells expressing mutated GPR17; format: biochemical; details: [35S]GTPγS EC50/IC50, P < 0.05 for antagonists
[5] = target: T1, wild type GPR17; details: cited from earlier work
[6] = test system: P2Y receptors; details: as listed in Table 1; cited from earlier work
[7] = target: T1, wild type GPR17; assay: [35S]GTPγS binding functional assay, 1321N1 cells expressing wild-type GPR17; format: biochemical

T1 sequence (Q13304 29-367): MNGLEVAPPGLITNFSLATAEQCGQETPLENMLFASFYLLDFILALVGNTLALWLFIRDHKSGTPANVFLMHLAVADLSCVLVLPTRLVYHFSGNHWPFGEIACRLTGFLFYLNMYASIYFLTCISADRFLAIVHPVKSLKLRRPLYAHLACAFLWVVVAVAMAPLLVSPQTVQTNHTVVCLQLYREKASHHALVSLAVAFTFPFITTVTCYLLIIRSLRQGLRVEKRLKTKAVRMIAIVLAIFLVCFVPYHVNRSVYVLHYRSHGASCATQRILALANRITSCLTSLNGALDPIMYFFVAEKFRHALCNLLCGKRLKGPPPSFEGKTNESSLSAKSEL
Chain of R255I mutated GPR17 receptor (Q13304 29-367 R283I): as the sequence (Q13304 29-367) above, with R255I counted along it
Chain of mutated GPR17 receptor (Arg255Ile) (Q13304 29-367 R283I): as the sequence (Q13304 29-367) above, with R255I counted along it

Row | SMILES | t/tc × 100, percentage of breakthrough time with respect to cangrelor ([1]; Library A mixture) | t/tc × 100, percentage of breakthrough time with respect to cangrelor ([1]; Library B mixture) | t (min), breakthrough time of the ligand with the immobilized GPR17 ([1]; Library B mixture) [min] | breakthrough time GPR17-IAM-II (Table 5) [2] | t/tC × 100 [2] [%] | t (min), breakthrough time [2] | breakthrough time Mutated GPR17-IAM (Table 5) [3] | t (min), breakthrough time [3] [min] | change in affinity toward mutated vs wild type receptor [4] | profile at GPR17 [5] | pharmacology [6] | increase in [35S]GTPγS binding by compound alone ([7]; wild-type GPR17) | pharmacological profile (agonist/antagonist) in [35S]GTPγS binding ([7]; wild-type GPR17) | binding class from FAC-MS breakthrough [1] | t/tc × 100, percentage of breakthrough time with respect to cangrelor ([1]; Library A mixture, listed as MRS 2179) [%] | Kd value hypothesized from the chromatographic data ([1]; elutes after cangrelor) | increase of activity on replacement of 3-nitrogen by CH (8 versus 7) ([7]; wild-type GPR17, EC50 comparison) [fold]
1 | O=c1ccn([C@@H]2O[C@H](COP(=O)([O-])OP(=O)([O-])[O-])[C@@H](O)[C@H]2O)c(=O)[nH]1.[Na+].[Na+].[Na+] [UDP, uridine diphosphate] | 13% and 13.03% | 12% and 12.30% | 1.50 | 2.69 | 25.38 | 2.69 min | 2.15 | 2.15 | a trend toward a reduced affinity | agonist | P2Y agonist |  |  |  |  |  | 
2 | N.N.Nc1nc(Cl)nc2c1ncn2[C@H]1C[C@H](OP(=O)(O)O)[C@@H](COP(=O)(O)O)O1 [Compound 12] | 25.99% |  |  | 3.55 | 33.49 | 3.55 min | 3.54 |  |  |  |  | did not induce any significant increase | antagonist profile |  |  |  | 
3 | N.N.N.O=c1[nH]c(=O)n([C@@H]2O[C@H](COP(=O)(O)OP(=O)(O)O)[C@@H](O)[C@H]2O)cc1I [Compound 13] | 16.54% |  |  | 2.79 | 26.32 | 2.79 min | 2.51 | 2.51 | a trend toward a reduced affinity |  |  |  | agonist profile | weak binders |  |  | 
4 | CCCCC#Cc1cn([C@@H]2O[C@H](COP(=O)(O)OP(=O)(O)O)[C@@H](O)[C@H]2O)c(=O)[nH]c1=O [Compound 14, 5-Hexynyluridine Diphosphate] | 19.67% |  |  | 2.97 | 28.02 | 2.97 min | 2.90 |  |  |  |  |  |  | weak binders |  |  | 
5 | CNc1ncnc2c1ncn2[C@H]1C[C@H](OP(=O)(O)O)[C@@H](COP(=O)(O)O)O1.N.N [MRS2179, MRS 2179] | 28.92% | 28% and 27.87% | 3.40 | 3.62 | 34.15 | 3.62 min | 3.47 | 3.47 | significant increase in affinity | antagonists | P2Y1 competitive Antagonist |  |  |  | 29 |  | 
6 | CSCCNc1nc(SCCC(F)(F)F)nc2c1ncn2[C@@H]1O[C@H](COP(=O)([O-])OP(=O)([O-])C(Cl)(Cl)P(=O)([O-])[O-])[C@@H](O)[C@H]1O.[Na+].[Na+].[Na+].[Na+] [Cangrelor, cangrelor, reference compound] | 100.00% | 100.00% | 12.20 | 10.60 | 100.00 | 10.60 min and 10.6 min | 13.16 | 13.16 | significant increase in affinity | antagonists |  |  |  |  |  |  | 
7 | CNc1ncnc2c1ncn2[C@@H]1O[C@H](COP(=O)(O)OP(=O)(O)OP(=O)(O)O)[C@@H](O)[C@H]1O.N.N.N.N [Compound 5] |  |  |  | 3.69 | 34.81 | 3.69 min | 4.08 |  |  |  |  |  |  |  |  |  | 
8 | N.N.N.N.Nc1nc(C#Cc2ccccc2)nc2c1ncn2[C@@H]1O[C@H](COP(=O)(O)OP(=O)(O)OP(=O)(O)O)[C@@H](O)[C@H]1O [Compound 4] | 120.37% |  |  | 13.07 | 123.30 | 13.07 min | 16.07 | 16.07 | a trend toward an increased affinity |  | P2Y1,12antogonist |  | agonist profile | high binding candidates |  | subnanomolar | 
9 | N.N.N.N.O=P(O)(O)OP(=O)(O)OP(=O)(O)OC[C@H]1O[C@@H](n2cnc3c(NC4CCCC4)ncnc32)[C@H](O)[C@@H]1O [Compound 6] | 49.90% |  |  | 5.67 | 53.49 | 5.67 min | 7.08 |  |  |  |  |  | agonist profile |  |  |  | 
10 | CNc1nc(Cl)nc2c1ncn2[C@@H]1O[C@H](COP(=O)(O)OP(=O)(O)OP(=O)(O)O)[C@@H](O)[C@H]1O.N.N.N.N [Compound 7, 2.-choro-N^6 - methyladenosine Triphospate] | 37.56% |  |  | 4.50 | 42.45 | 4.50 min and 4.5 min | 5.27 |  |  |  |  |  | agonist profile |  |  |  | 
11 | CNc1nc(Cl)cc2c1ncn2[C@@H]1O[C@H](COP(=O)(O)OP(=O)(O)OP(=O)(O)O)[C@@H](O)[C@H]1O.N.N.N.N [Compound 8, 2.-choro-3-deaza-N^6-- methyladenosine Triphospate] | 45.05% |  |  | 4.77 | 45.00 | 4.77 min | 5.79 |  |  |  |  |  | agonist profile |  |  |  | 7
